Measured values taken from US6399745B1, “Use of leptin antagonists for treating insulin resistance in type II diabetes” (Aventis Pharma Deutschland GmbH, priority 1996, dated 2002).

Tested on: isolated rat adipocytes
Assay: Antagonism of fragment 116-167 to the leptin effect: insulin-stimulated lipogenesis
Assay type: cell-based
Procedure: Adipocytes were prepared from the epididymal fat tissue of male Wistar rats (140-160 g, Hoechst AG breeding station, Kastengrund) by means of digesting with collagenase (Rodbell, 1964, J. Biol. Chem. 239, 375-380), washed twice with KRH (25 mM Hepes free acid, 25 mM Hepes sodium salt, 80 mM NaCl, 1 mM MgSO4, 2 mM CaCl2, 6 mM KCl, 1 mM sodium pyruvate, 0.5% BSA) and once with DMEM (Dulbecco's minimal essential medium), supplemented with 5.5 mM glucose, 20 mM Hepes (pH 7.4), 2% fetal calf serum, 1% BSA, 50 U of penicillin/ml, […], by means of flotation (800×g, 1 min, in small plastic tubes), and finally diluted to a volume of 20 ml of DMEM/g wet weight of the fat tissue (cell titer: approximately 2.5×10^5 cells/ml). […] In order to determine the capacity of the adipocytes to be stimulated by insulin, and their sensitivity to insulin, following the primary culture, the washed adipocytes were incubated at 37° C. for 20 min in the absence or presence of human insulin (0.02-50 nM final concentration), and glucose transport or lipogenesis was then measured. Lipogenesis was measured as the incorporation of D-glucose into toluene-extractable lipids (Moody et al., 1974, Horm. Metab. Res. 6, 12-16). […] The radioactivity of the lipids in the toluene phase was corrected for the radioactivity of an incubation mixture which contained the same quantity of [^3H]glucose but no cells. […]

Substance	Lipogenesis, stimulation factor for insulin (stimulated/basal) (Insulin only, 5 nM (no leptin, no fragment))	Lipogenesis, stimulation factor for insulin (stimulated/basal) (Leptin: 10 nM 17.5 h, no fragment, Insulin: 5 nM)
Insulin: human insulin used to stimulate adipocytes [reference compound]	3.9	–
Leptin	–	1.5
